We go through five molecules from US8987198B2, “Compositions and methods for treating obesity and diabetes” (The Administrators of the Tulane Educational Fund, priority 2009, dated 2015).

In experiment [1] the test system is Liver X Receptor in LNCaP Cells. Nature of the experiment: Up-regulation of LXR-responsive genes ABCG1/ABCA1 in LNCaP cells. Format: cell-based. The conditions noted are these: glyceollin at 5 μM for 48 h.
Description: LNCaP cells were obtained from the American Type Culture Collection (Manassas, Va.) and maintained in Media A [RPMI 1640 medium with phenol red (Invitrogen, Carlsbad, Calif.), 2 mM L-glutamine (Sigma), 100 U/mL penicillin and 100 μg/mL streptomycin (BioSource International, Camarillo, Calif.) with 10% fetal bovine serum (FBS) (Invitrogen, Carlsbad, Calif.)]. Cells were incubated in the presence of 5% CO2 in air at 37° C.
The subject of experiment [2] is 3T3-L1 differentiated adipocytes. Kind of experiment: [3H]2-deoxyglucose uptake assay in 3T3-L1 adipocytes. Format: cell-based, murine. The conditions noted are these: for glucose uptake after addition of insulin: 0.3 nM insulin + glyceollin; for glucose uptake after addition of insulin / glucose uptake in the absence of insulin: FIG. 17; for glucose uptake in the absence of insulin: 24 h KRH, then 30 min exposure; for insulin-mediated glucose uptake after pre-incubation with glyceollins: 24 hours pre-incubation, 30 min insulin, FIG. 15. As to the method: Krebs-Ringers-Hepes (KRH) buffer was prepared with 200 mL H2O, 300 μL of 1 M CaCl2, 300 μL of 1.2 M MgSO4, 300 μL of 1 M KH2PO4, 3 mL of 0.14 M KCl, 6 mL of 1 M HEPES in 1.2 M NaHCO3, and 15 mL of 2.6 M NaCl. […] Insulin (MW=5808) stock solution (100 μM) was prepared by dissolving 2.90 mg insulin into 5 mL of 0.01 N HCl. To make working solutions: the stock solution was diluted 1:10 by adding 100 μL stock to 900 μL KRH buffer, giving solution A (10 μM); solution A was diluted by adding 400 μL of solution A to 932 μL KRH buffer, giving solution B (3 μM); solution A was diluted by adding 100 μL of solution A to 900 μL KRH buffer, giving solution C (1 μM); solution B was diluted by adding 100 μL of solution B to 900 μL KRH buffer, giving solution D (300 nM); solution C was diluted by adding 100 μL of solution C to 900 μL KRH buffer, giving solution E (100 nM); solution D was diluted by adding 100 μL of solution D to 900 μL KRH buffer, giving solution F (30 nM); solution E was diluted by adding 100 μL of solution E to 900 μL KRH buffer, giving solution G (10 nM); solution F was diluted by adding 100 μL of solution F to 900 μL KRH buffer, giving solution H (3 nM); solution G was diluted by adding 100 μL of solution G to 900 μL KRH buffer, giving solution I (1 nM); and solution H was diluted by adding 100 μL of solution H to 900 μL KRH buffer, giving solution J (0.3 nM). 100 μL of each concentration was added to each well with a final volume in each well of 1000 μL (1:10 dilution when added to cells). […] This stock solution was kept refrigerated. To make working solutions: 80 μL of the stock solution was diluted with 3920 μL KRH buffer, giving solution A (200 μM); solution A was diluted by adding 500 μL of solution A to 335 μL KRH buffer, giving solution B (120 μM); solution A was diluted by adding 1000 μL of solution A to 1000 μL KRH buffer, giving solution C (100 μM); solution A was diluted by adding 1000 μL of solution A to 1500 μL KRH buffer, giving solution D (80 μM); solution A was diluted by adding 1000 μL of solution A to 2330 μL KRH buffer, giving solution E (60 μM); solution D was diluted by adding 1000 μL of solution D to 1000 μL KRH buffer, giving solution F (40 μM); solution F was diluted by adding 1000 μL of solution F to 1000 μL KRH buffer, giving solution G (20 μM); solution G was diluted by adding 1000 μL of solution G to 1000 μL KRH buffer, giving solution H (10 μM); and solution H was diluted by adding 1000 μL of solution H to 1000 μL KRH buffer, giving solution I (5 μM). 100 μL of each concentration was added to each well with a final volume in each well of 1000 μL (1:10 dilution when added to cells). Unless indicated otherwise (see, e.g., EXAMPLES 14 & 15), where the EXAMPLES below refer to glyceollin, a mixture of glyceollins I, II, and III, was used. Cell culture and differentiation of murine 3T3-L1 cells is a well-accepted model for study of adipocyte differentiation, glucose uptake, and insulin action. These cells undergo a program of differentiation manifest by large lipid droplet accumulation when stimulated by the appropriate hormonal cocktail. The adipocytes express markers such as leptin and adiponectin, express Glut 4, and respond to insulin stimulation by increasing glucose uptake, similar to primary adipocytes. For these experiments, frozen preadipocytes were purchased from Zenbio (Research Triangle Park, N.C.). They were thawed at 37° C., diluted with Zenbio Preadipocyte medium, and incubated in 24-well plates at 37° C. in a humidified atmosphere containing 95% air and 5% CO2 until confluent. Signals derived from confluency were allowed by incubating for 2 more days. Preadipocyte medium was replaced with Zenbio Differentiation Medium and the cells were incubated for 3 additional days; that medium was replaced with Zenbio Adipocyte […] medium for about 2 weeks when greater than 95% of the cells appeared filled with large lipid droplets. […]

Regarding `O=c1c(-c2ccc(O)cc2)coc2cc(O)cc(O)c12` [Genistein, genistein], the “fold up-regulation of ABCG1” value in experiment [1] came to 3 fold.

Consider `C=C(C)[C@@H]1Cc2cc3c(cc2O1)OC[C@@]1(O)c2ccc(O)cc2O[C@@H]31` [glyceollin III], for which, in experiment [2], the “glucose uptake after addition of insulin” value is reported as “further enhanced”, the “glucose uptake in the absence of insulin” value is recorded as “can stimulate glucose uptake in the absence of insulin” and the “insulin-mediated glucose uptake after pre-incubation with glyceollins” value is reported as “more effective than glyceollin II”.

For `CC1(C)C=Cc2c(ccc3c2OC[C@@]2(O)c4ccc(O)cc4O[C@@H]32)O1` [glyceollin I], in experiment [2], the “glucose uptake after addition of insulin” value is on record as “further enhanced”, the “glucose uptake in the absence of insulin” value is given as “can stimulate glucose uptake in the absence of insulin” and the “insulin-mediated glucose uptake after pre-incubation with glyceollins” value is recorded as “more effective than glyceollin II”. Further, the “glucose uptake after 30 minute exposure” value in experiment [2] (5 μM, cells pre-incubated 24 h with KRH, FIG. 16) was “stimulate glucose uptake better than glyceollins II and III”.

Take `Oc1ccc2c(c1)OC[C@@]1(O)c3ccc(O)cc3O[C@@H]21` [glycinol, reference compound]: the “glucose uptake after 30 minute exposure to glycinol” value in experiment [2] (1 μM and 0.1 μM, absence of insulin, FIG. 16 columns 7 and 8) was “does not present the same bioactivity as glyceollin”. Moreover, the “glucose uptake with glycinol” value in experiment [2] (5 μM glycinol, 24 h pre-incubation, with or without insulin, FIG. 14) is “ineffective at stimulating glucose uptake”.

As to insulin [reference compound], the “glucose uptake by insulin alone” value in experiment [2] (0.2 nM insulin, FIG. 19 column 2) is on record as “stimulation of glucose uptake”.
